Data taken from patent publication US9920010B2, “CXCR7 receptor modulators” (IDORSIA PHARMACEUTICALS LTD, priority 2013, dated 2018).

These compounds were tested against T1, CXCR7 (Homo sapiens, UniProt P25106) (assay: PathHunter CHO-K1 CXCR7 b-arrestin recruitment assay (CXCR7 agonistic activity)). Conditions: PathHunter CHO-K1 CXCR7 b-arrestin cell line.
T1 construct: host or cells: CHO-K1 (PathHunter CHO-K1 CXCR7 b-arrestin cell line, stably transfected)
T1 sequence (P25106 whole entry): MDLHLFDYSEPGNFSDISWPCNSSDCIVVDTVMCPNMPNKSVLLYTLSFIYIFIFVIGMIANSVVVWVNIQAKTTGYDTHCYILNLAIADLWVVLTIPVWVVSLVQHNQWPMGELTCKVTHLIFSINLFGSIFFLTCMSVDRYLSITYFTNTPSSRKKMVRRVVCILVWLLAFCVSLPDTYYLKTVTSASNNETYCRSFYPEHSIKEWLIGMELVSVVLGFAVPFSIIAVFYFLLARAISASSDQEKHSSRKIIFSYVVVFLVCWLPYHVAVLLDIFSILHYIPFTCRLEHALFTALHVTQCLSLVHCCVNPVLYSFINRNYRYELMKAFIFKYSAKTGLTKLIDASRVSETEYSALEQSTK
T1 sequence (P32121 whole entry partner): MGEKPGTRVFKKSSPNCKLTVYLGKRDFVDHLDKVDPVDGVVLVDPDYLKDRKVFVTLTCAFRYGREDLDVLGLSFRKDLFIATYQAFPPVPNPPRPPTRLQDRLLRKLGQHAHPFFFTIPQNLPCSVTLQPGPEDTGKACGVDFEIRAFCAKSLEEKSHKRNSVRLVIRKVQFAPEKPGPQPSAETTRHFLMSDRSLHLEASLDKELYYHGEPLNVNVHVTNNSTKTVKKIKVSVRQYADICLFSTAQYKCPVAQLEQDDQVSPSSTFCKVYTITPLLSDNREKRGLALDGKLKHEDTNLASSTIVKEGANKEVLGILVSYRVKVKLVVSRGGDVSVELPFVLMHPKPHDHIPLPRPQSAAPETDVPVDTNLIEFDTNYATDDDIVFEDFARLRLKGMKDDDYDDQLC
Format: cell-based
Procedure: The CXCl12 receptor and CXCR7 agonistic activities of the compounds of formula (I) are determined in accordance with the following experimental method.
The assay is using the PathHunter™ CHO-K1 CXCR7 b-arrestin cell line from DiscoverX. The system is based on the Enzyme Fragment Complementation Technology. Two complementing fragments of the b-galactosidase enzyme are expressed within stably transfected cells. The larger portion of b-gal, termed EA for Enzyme Acceptor, is fused to the C-terminus of b-arrestin 2. The smaller fragment, termed ProLink™ tag, is fused to CXCR7 at the C-terminus. Upon activation, b-arrestin is recruited which forces the interaction of ProLink and EA, allowing complementation of the two fragments of b-gal and the formation of a functional enzyme which is capable of hydrolysing the substrate and generating a chemiluminescent signal.
CHO-K1 CXCR7 b-arrestin cells are detached from culture dishes with a cell dissociation buffer (Invitrogen, #13151-014) and collected in growing medium (F12 HAMS 90% (v/v)/FCS 10% (v/v), Penicillin/streptomycin 1% (v/v)). 5000 cells per well (in 20 μl) are seeded in a 384 well plate (white-walled, clear bottom; BD Falcon #353274). The plate is incubated at 37° C./5% CO2 for 24 hours. Medium is then replaced by 20 μl OPTIMEM (Invitrogen #31985) for 3 to 4 hours. Test compounds are dissolved at 10 mM in DMSO and serially diluted in DMSO to 200× of the final concentration for dose response curves. Compounds are then diluted 1:33.3 in HBSS1×. 5 μl/well of HBSS1×/20 mM HEPES/0.2% BSA are added to the assay plate followed by addition of 5 μl/well of diluted compounds. CXCL12 (Peprotech #300-28A) may be used as a reference agonist. The plate is incubated for 90 minutes at 37° C. 12 μl of detection reagent (Path Hunter Detection Kit, DiscoveRx, #93-0001) is transferred to the assay plate and to the plate is incubated for 1 hour at room temperature. Luminescent signal is read in a microplate reader (FLUOstar Optima, bmg). The calculated EC50 values may fluctuate depending on the daily cellular assay performance. Fluctuations of this kind are known to those skilled in the art. Average EC50 values from several measurements are given as geometric mean values.
`CCN1CCc2cccc(NCC(=O)N(CCN(C)C)Cc3cccc(C(F)(F)F)n3)c2C1` [compound 532, N-(2-Dimethylamino-ethyl)-2-(2-ethyl-1,2,3,4-tetrahydro-isoquinolin-8-ylamino)-N-(6-trifluoromethyl-pyridin-2-ylmethyl)-acetamide] gave an EC50 of 30 nM.
With `CN(C)CCN(Cc1ncccc1Cl)C(=O)/C=C/c1cccc2c1CCN(C(=O)[C@H]1C[C@H]1F)C2` (racemic) [Example 330, rac-(E)-N-(3-Chloro-pyridin-2-ylmethyl)-N-(2-dimethylamino-ethyl)-3-[2-((1R*,2R*)-2-fluoro-cyclopropanecarbonyl)-1,2,3,4-tetrahydro-isoquinolin-5-yl]-acrylamide] the EC50 was 11 nM.
With `CN1CCCC(N(Cc2ccccc2C(F)(F)F)C(=O)CNc2cccc3c2CCN(C(=O)OC(C)(C)C)C3)C1` (racemic) [Example 11, rac-5-({[(1-Methyl-piperidin-3-yl)-(2-trifluoromethyl-benzyl)-carbamoyl]-methyl}-amino)-3,4-dihydro-1H-isoquinoline-2-carboxylic acid tert-butyl ester] the EC50 was 52 nM.
In the case of `CN(C)CCN(Cc1ccccc1Cl)C(=O)CNc1cc(C(F)(F)F)cc2c1CCN(CC1CC1)C2` [Example 295, N-(2-Chloro-benzyl)-2-(2-cyclopropylmethyl-7-trifluoromethyl-1,2,3,4-tetrahydro-isoquinolin-5-ylamino)-N-(2-dimethylamino-ethyl)-acetamide], the EC50 is reported as 411 nM.
Compound `CC(=O)N1CCc2c(cccc2NCC(=O)N(CCN(C)C)Cc2ccccc2)C1` [Example 108, 2-(2-Acetyl-1,2,3,4-tetrahydro-isoquinolin-5-ylamino)-N-benzyl-N-(2-dimethylamino-ethyl)-acetamide] has an EC50 of 52 nM.
`CCN1CCc2cccc(NCC(=O)N(CCN(C)C)Cc3cccc(C)n3)c2C1` [compound 526, N-(2-Dimethylamino-ethyl)-2-(2-ethyl-1,2,3,4-tetrahydro-isoquinolin-8-ylamino)-N-(6-methyl-pyridin-2-ylmethyl)-acetamide] gave an EC50 of 44 nM.
Work on `COCCN1CCc2c(CCC(=O)N(CCN(C)C)Cc3ncccc3C(F)(F)F)cccc2C1` [Example 336, N-(2-Dimethylamino-ethyl)-3-[2-(2-methoxy-ethyl)-1,2,3,4-tetrahydro-isoquinolin-5-yl]-N-(3-trifluoromethyl-pyridin-2-ylmethyl)-propionamide] yielded an EC50 of 47 nM.
`CCN1CCc2cccc(NCC(=O)N(CCc3ccccc3C(F)(F)F)CCN(C)C)c2C1` [compound 538] showed an EC50 of 155 nM.
In the case of `CCN1CCc2c(cccc2OCC(=O)N(CCN(C)C)Cc2ccccc2C(F)(F)F)C1` [compound 173, N-(2-Dimethylamino-ethyl)-2-(2-ethyl-1,2,3,4-tetrahydro-isoquinolin-5-yloxy)-N-(2-trifluoromethyl-benzyl)-acetamide], the EC50 is reported as 5 nM.
For `CN(C)CCN(Cc1ccccc1C(F)(F)F)C(=O)CNc1cc(C(F)(F)F)cc2c1CCN(CC1CC1)C2` [Example 296, 2-(2-Cyclopropylmethyl-7-trifluoromethyl-1,2,3,4-tetrahydro-isoquinolin-5-ylamino)-N-(2-dimethylamino-ethyl)-N-(2-trifluoromethyl-benzyl)-acetamide], the EC50 was 430 nM.
Work on `O=C(CNc1cccc2c1CCN(CC1CC1)C2)N(CCOCc1ccccc1)Cc1ccccc1C(F)(F)F` [Example 82, N-(2-Benzyloxy-ethyl)-2-(2-cyclopropylmethyl-1,2,3,4-tetrahydro-isoquinolin-5-ylamino)-N-(2-trifluoromethyl-benzyl)-acetamide] yielded an EC50 of 158 nM.
With `CCC(=O)N1CCc2c(cccc2NCC(=O)N(CCN(C)C)Cc2ccc(Cl)cc2)C1` [Example 19, N-(4-Chloro-benzyl)-N-(2-dimethylamino-ethyl)-2-(2-propionyl-1,2,3,4-tetrahydro-isoquinolin-5-ylamino)-acetamide] the EC50 was 102 nM.
`CC(C)(C)OC(=O)NCCN(Cc1ccccc1C(F)(F)F)C(=O)CNc1cccc2c1CCN(CC1CC1)C2` [Example 273, {2-[[2-(2-Cyclopropylmethyl-1,2,3,4-tetrahydro-isoquinolin-5-ylamino)-acetyl]-(2-trifluoromethyl-benzyl)-amino]-ethyl}-carbamic acid tert-butyl ester] showed an EC50 of 144 nM.
`CN(C)CCN(Cc1ccccc1C(F)(F)F)C(=O)CNc1cccc2c1CCN(C(=O)[C@H]1C[C@H]1F)C2` (racemic) [Example 363, rac-N-(2-Dimethylamino-ethyl)-2-[2-((1R*,2R*)-2-fluoro-cyclopropanecarbonyl)-1,2,3,4-tetrahydro-isoquinolin-5-ylamino]-N-(2-trifluoromethyl-benzyl)-acetamide] was tested, and the EC50 was 3 nM.
In the case of `Cc1cccc(CN(CCN(C)C)C(=O)CNc2cccc3c2CCN(CC2CC2)C3)n1` [Example 259, 2-(2-Cyclopropylmethyl-1,2,3,4-tetrahydro-isoquinolin-5-ylamino)-N-(2-dimethylamino-ethyl)-N-(6-methyl-pyridin-2-ylmethyl)-acetamide], the EC50 is reported as 5 nM.
With `CN1CCC(N(Cc2ccccc2C(F)(F)F)C(=O)/C=C/c2cccc3c2CCN(CC2CC2)C3)CC1` [compound 152, (E)-3-(2-Cyclopropylmethyl-1,2,3,4-tetrahydro-isoquinolin-5-yl)-N-(1-methyl-piperidin-4-yl)-N-(2-trifluoromethyl-benzyl)-acrylamide] the EC50 was 8 nM.
For `CCN1CCc2cccc(NCC(=O)N(CCN(C)C(=O)OC(C)(C)C)Cc3ccccc3C(F)(F)F)c2C1` [compound 515], the EC50 was 382 nM.
Compound `COCCN1CCc2c(CCC(=O)N(CCN3CCC(F)(F)CC3)Cc3ncccc3C(F)(F)F)cccc2C1` [Example 340, N-[2-(4,4-Difluoro-piperidin-1-yl)-ethyl]-3-[2-(2-methoxy-ethyl)-1,2,3,4-tetrahydro-isoquinolin-5-yl]-N-(3-trifluoromethyl-pyridin-2-ylmethyl)-propionamide] has an EC50 of 277 nM.
`COCCN1CCc2c(/C=C/C(=O)N(Cc3ccccc3)C3CCS(=O)(=O)C3)cccc2C1` (stereo not drawn) [Example 316, (E)-N-Benzyl-N-(1,1-dioxo-tetrahydro-1l6-thiophen-3-yl)-3-[2-(2-methoxy-ethyl)-1,2,3,4-tetrahydro-isoquinolin-5-yl]-acrylamide] was tested, and the EC50 was 370 nM.
With `COCCN1CCc2c(cccc2NCC(=O)N(Cc2ccccc2C(F)(F)F)CC2(C)COC2)C1` [Example 303, 2-[2-(2-Methoxy-ethyl)-1,2,3,4-tetrahydro-isoquinolin-5-ylamino]-N-(3-methyl-oxetan-3-ylmethyl)-N-(2-trifluoromethyl-benzyl)-acetamide] the EC50 was 246 nM.
Work on `CN(C)CCN(Cc1ccccc1C(F)(F)F)C(=O)CNc1cccc2c1CN(CC1CC1)CC2(C)C` [compound 199] yielded an EC50 of 255 nM.
In the case of `O=C(CNc1cccc2c1CCN(CC1CC1)C2)N(CCN1CCC(F)(F)C1)Cc1ccccc1C(F)(F)F` [Example 282, 2-(2-Cyclopropylmethyl-1,2,3,4-tetrahydro-isoquinolin-5-ylamino)-N-[2-(3,3-difluoro-pyrrolidin-1-yl)-ethyl]-N-(2-trifluoromethyl-benzyl)-acetamide], the EC50 is reported as 47 nM.
“2-(2-Cyclopropylmethyl-1,2,3,4-tetrahydro-isoquinolin-5-ylamino)-N-isoxazol-5-ylmethyl-N-(2-trifluoromethyl-benzyl)-acetamide [Example 250]” was tested, and the EC50 was 31 nM.
For `O=C(CNc1cccc2c1CCN(CC1CC1)C2)N(Cc1ccccc1C(F)(F)F)C1CCC(O)CC1` (stereo not drawn) [Example 222, 2-(2-Cyclopropylmethyl-1,2,3,4-tetrahydro-isoquinolin-5-ylamino)-N-(4-hydroxy-cyclohexyl)-N-(2-trifluoromethyl-benzyl)-acetamide], the EC50 was 27 nM.
Compound `COCCN1CCc2c(cccc2NCC(=O)N(CCN(C)C)Cc2ncccc2Cl)C1` [Example 306, N-(3-Chloro-pyridin-2-ylmethyl)-N-(2-dimethylamino-ethyl)-2-[2-(2-methoxy-ethyl)-1,2,3,4-tetrahydro-isoquinolin-5-ylamino]-acetamide] has an EC50 of 39 nM.
Work on `CN(C)CCN(Cc1ccccc1C(F)(F)F)C(=O)CNc1cccc2c1CN(S(C)(=O)=O)CC2` [Example 544, N-(2-Dimethylamino-ethyl)-2-(2-methanesulfonyl-1,2,3,4-tetrahydro-isoquinolin-8-ylamino)-N-(2-trifluoromethyl-benzyl)-acetamide] yielded an EC50 of 34 nM.
Work on `Cc1ccccc1CCN(CCN(C)C)C(=O)CNc1cccc2c1CCN(CC1CC1)C2` [Example 40, 2-(2-Cyclopropylmethyl-1,2,3,4-tetrahydro-isoquinolin-5-ylamino)-N-(2-dimethylamino-ethyl)-N-(2-o-tolyl-ethyl)-acetamide] yielded an EC50 of 44 nM.
